Legend:
[1] = Solubility of calcium salt in water (concentration in filtered solution, UV method); assay type: physicochemical; details: concentration in solution filtered through 0.2 μm filter
Description: Aqueous solutions of a sodium salt of the methyl ester of N-all-trans-retinoyl cysteic acid (5 ml, 15 mg/ml) and calcium chloride (3 ml, 30 mg/ml) were mixed in a 10 ml test tube. During the mixing a fine precipitation emerged. The precipitate was separated by centrifugation of the test tube at 3000 rpm for 10 min. The supernatant was removed and the precipitate was shaken with 8 ml of water followed by a new centrifugation. After three additional washing procedures as described above the supernatant was filtered through a 0.2 μm filter in order to remove possible large aggregates of the product. […] The reaction is illustrated by the below general scheme involving chlorides of any polyvalent metal ions, not only calcium ions.

[2] = cited from earlier work

solubility [1] | Structure (SMILES) | Bioavailability at oral administration [2]
200 µg/mL | COC(=O)C(CS(=O)(=O)[O-])NC(=O)/C=C(C)/C=C/C=C(C)/C=C/C1=C(C)CCCC1(C)C.COC(=O)C(CS(=O)(=O)[O-])NC(=O)/C=C(C)/C=C/C=C(C)/C=C/C1=C(C)CCCC1(C)C.[Ca+2] (stereo not drawn) [calcium salt of the methyl ester of N-all-trans-retinoyl cysteic acid] | –
– | CO[C@H]1C[C@@H]2CC[C@@H](C)[C@@](O)(O2)C(=O)C(=O)N2CCCC[C@H]2C(=O)O[C@H]([C@H](C)C[C@@H]2CC[C@@H](OCCO)[C@H](OC)C2)CC(=O)[C@H](C)/C=C(\C)[C@@H](O)[C@@H](OC)C(=O)[C@H](C)C[C@H](C)/C=C/C=C/C=C/1C [everolimus] | about 20%
– | CO[C@H]1C[C@@H]2CC[C@@H](C)[C@@](O)(O2)C(=O)C(=O)N2CCCC[C@H]2C(=O)O[C@H]([C@H](C)C[C@@H]2CC[C@@H](O)[C@H](OC)C2)CC(=O)[C@H](C)/C=C(\C)[C@@H](O)[C@@H](OC)C(=O)[C@H](C)C[C@H](C)/C=C/C=C/C=C/1C [sirolimus] | about 20%
– | C=CC[C@@H]1/C=C(\C)C[C@H](C)C[C@H](OC)[C@H]2O[C@@](O)(C(=O)C(=O)N3CCCC[C@H]3C(=O)O[C@H](/C(C)=C/[C@@H]3CC[C@@H](O)[C@H](OC)C3)[C@H](C)[C@@H](O)CC1=O)[C@H](C)C[C@@H]2OC [tacrolimus] | about 20%
